Test results published in US20230357249A1, “ANDROGEN RECEPTOR PROTEIN DEGRADERS WITH A TRICYCLIC CEREBLON LIGAND” (THE REGENTS OF THE UNIVERSITY OF MICHIGAN, priority 2020, published 2023).

System: AR protein
Test: AR protein degradation in MDA-MB-453 cells, Western blotting
Assay type: cell-based
Design: key to AR protein degradation MDA-MB-453 10 nM: A: >90% degradation (24 hr treatment); B: >50% degradation but <90% (24 hr treatment); C: >10% degradation but <50% (24 hr treatment); D: No significant degradation (24 hr treatment)
Conditions: 24 hr treatment
Experimental: The appropriate cell line, e.g., prostate cancer LNCaP, Vcap, or 22RV1 cell line, was treated with Compounds of the Disclosure as indicated. The treated cells were lysed with RIPA buffer. The AR level in the cell lysates was examined by western blotting and a specific AR antibody (ab194196, Abcam, Cambridge, MA 02139) with concentration of 1:20,000. GAPDH was used as a loading control.
Bands were quantified with ImageJ software. The relative numbers of each band obtained from normalization with its corresponding GAPDH level were compared with Prism 8 software. The DC50 values were produced from Prism 8, and the DC90 values were calculated with an equation=Bottom + (Top-Bottom)/(1+10^((LogEC50-X)*HillSlope) based on DC50 and Hillslope values.
The amount of AR protein degradation in VCap and MDA-MB-453 cells caused by representative Compounds of the Disclosure at the concentrations indicated is presented in Table 4, FIG. 1, and FIG. 2.

CC1(C)[C@H](Oc2ccc(C#N)c(Cl)c2)C(C)(C)[C@H]1N1Cc2cc(N3CCN(CC(=O)N4Cc5cc6c(cc5C4)C(=O)N(C4CCC(=O)NC4=O)C6=O)CC3)ccc2C1=O (some centres unmarked) [compound 2]
AR protein degradation MDA-MB-453 10 nM (10 nM): D | AR protein degradation MDA-MB-453 100 nM (100 nM): C (>10% degradation but <50% (24 hr treatment))
